Measurements published in US9725490B2, “ERAP1-derived peptide and use thereof” (TOKUSHIMA UNIVERSITY, priority 2011, dated 2017).

Key:
Type in all cases: cell-based, human
HDAC1 = assay: Deacetylation (HDAC) assay of anti-PHB2 immunoprecipitate; details: MCF-7, 24 hours
Description: FIG. 4-4 is a diagram illustrating that the ERAP1-peptide promotes nuclear translocation of PHB2. […] MCF-7 cells were treated with the ERAP1-peptide and/or 10 nM E2 for 24 hours. Then, the nuclear fraction was immunoprecipitated with anti-ERα antibody or an anti-PHB2 antibody. […] MCF-7 cells were treated with the ERAP1-peptide and/or E2 for 24 hours. Then, the cell lysate was immunoprecipitated with anti-PHB2 antibody. Subsequently, the HDAC activity in the immunoprecipitate was measured with a commercially available kit. The nuclear extract from the HeLa cells and PBS were used as a positive control (P) and as negative control (N), respectively.
HDAC assay was performed using HDAC Fluorescent Activity Assay/Drug Discovery Kit (Enzo Life Sciences, Plymouth Meeting, Pa., USA) in accordance with the instruction of the manufacturer. MCF-7 cells were treated with E2 and/or the ERAP1 peptide(s) for 24 hours in a 6-well plate. Then, the cell extract was immunoprecipitated with anti-PHB2 antibody. Furthermore, the immunoprecipitated cell extract was incubated for 30 minutes in the presence of a substrate at 30° C. After the incubation, the reaction was stopped, and the fluorescence was analyzed with a microplate fluorometer (Infinite M200, Tecan, Mannedorf, Switzerland).

[1] = system: ERα interaction with IGF-1Rβ and Shc; assay: E2-independent non-genomic activation route via IGF-1Rβ, MCF-7; details: 10 μM, 24 hours, cytoplasm fraction
Description: FIG. 15 is a diagram illustrating the effects of the ERAP1-peptide on E2-independent cell functions. […] MCF-7 cells were treated with the ERAP1-peptide in each concentration (1, 3, 5 and 10 μM) or 10 nM tamoxifen as a positive control for 24 hours. […] MCF-7 cells were stimulated with 10 μM ERAP1-peptide treatment only, 10 nM E2 treatment only, or 10 μM ERAP1-peptide treatment and immediately 10 nM E2 for 24 hours, and the cytoplasm fraction was isolated from each of the treated cells. Then, the cytoplasm fraction was immunoprecipitated with anti-ERα antibody. Furthermore, with respect to the obtained sample, Western blotting analysis was performed using the antibodies shown in the figure.
MCF-7 cells were subjected to a treatment of 10 μM ERAP1-peptide alone, stimulation with 10 nM E2 alone, and co-stimulation with the ERAP1 peptide and E2, respectively, and after 24 hours, the cytoplasm fraction was isolated from the cells of each treatment. The cytoplasm fraction was precleaned using normal IgG and rec-Protein G Sepharose 4B (Zymed, San Francisco, Calif., USA) at 4° C. for 3 hours, and centrifuged, and then the supernatant was incubated in the presence of anti-ERα antibody at 4° C. for 6 hours. Then, the supernatant was added with rec-Protein G Sepharose 4B and incubated at 4° C. for 1 hour whereby to precipitate an antigen-antibody complex. […]

[2] = system: PHB2/REA (Ser39) phosphorylation; assay: Ser39 phosphorylation of PHB2/REA, MCF-7; details: 10 μM
Description: FIG. 26-1 is a diagram illustrating the results of evaluations for the phosphorylation in nuclear-translocated Ser39 of PHB2/REA. […] MCF-7 cells were treated with 10 μM ERAP1-peptide. Then, immediately, the cells were stimulated with 10 nM E2 for 24 hours. The cells were fractionated into cytoplasm and nuclear fractions by specific gravity centrifugation. Then, each fraction was immunoprecipitated with anti-PHB2/REA antibody. Then, the cells were lysed. Then, the immunoprecipitated protein and the cell lysate were subjected to immunoblotting analysis with the antibodies shown in the figure. […] Then, immediately, the cells were temporally stimulated with 10 nM E2. Each cell lysate was subjected to immunoblotting analysis with an anti-PHB2/REA antibody and an anti-phosphorylation PHB2/REA (S39) antibody. […] MCF-7 cells were treated with the ERAP1-peptide and λ-phosphatase (400 U) in the presence of 10 nM E2 for 24 hours. After the immobilization, the cells were subjected to immunofluorescent staring. […]
MCF-7 cells were seeded in an 8-well chamber (Laboratory-Tek II Chamber Slide System, Nalgen Nunc International, Naperville, Ill., USA) in 5×10^4 cells/well, and cultured under estrogen-free condition for 24 hours. […] The fluorescence image was obtained under Olympus IX71 microscope (Tokyo, Japan).

CSCC[C@H](NC(=O)[C@H](CCC(N)=O)NC(=O)[C@H](CCCNC(=N)N)NC(=O)[C@H](CCCNC(=N)N)NC(=O)[C@H](CCCNC(=N)N)NC(=O)[C@H](CCCNC(=N)N)NC(=O)[C@H](CCCNC(=N)N)NC(=O)[C@H](CCCNC(=N)N)NC(=O)[C@H](CCCNC(=N)N)NC(=O)[C@H](CCCNC(=N)N)NC(=O)[C@H](CCCNC(=N)N)NC(=O)[C@H](CCCNC(=N)N)NC(=O)[C@@H](N)CCCNC(=N)N)C(=O)N[C@@H](CC(C)C)C(=O)N[C@@H](CO)C(=O)N[C@@H](CC(=O)O)C(=O)N[C@@H](CC(C)C)C(=O)N[C@H](C(=O)N[C@@H](CC(C)C)C(=O)N[C@@H](CCC(N)=O)C(=O)N[C@@H](CC(C)C)C(=O)N[C@@H](CCCNC(=N)N)C(=O)N[C@@H](CCC(N)=O)C(=O)N[C@@H](CCCNC(=N)N)C(=O)O)[C@@H](C)O [ERAP1-peptide]
activity of HDAC1 (HDAC1): accelerated dose-dependently | interaction of IGF-1Rβ and Shc with ERα, absence of E2 [1]: each interaction of IGF-1Rβ and Shc, and ERα was inhibited | E2-dependent Ser phosphorylation of PHB2/REA, successive change ([2]; 10 nM E2): recognized continuously from 1 hour to 24 hours | phosphorylation of Ser39 of nuclear-translocated PHB2/REA ([2]; 10 nM E2 24 hours): recognized for the phosphorylation of Ser39
